Source: PubChem BioAssay (NCI)
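Compound exposure: 48 hours, 5 concentrations, 96-well plates. Definition used: TGI = concentration required for complete inhibition of growth.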

Tests used:
Test in all cases: DTP human tumour cell line panel, 48 h
OVCAR-8 ovarian = test system: OVCAR-8 ovarian
A498 renal = test system: A498 renal
SK-MEL-2 melanoma = test system: SK-MEL-2 melanoma
SR leukemia = test system: SR leukemia
NCI-H460 lung = test system: NCI-H460 lung
SN12C renal = test system: SN12C renal
HT29 colon = test system: HT29 colon
SK-MEL-28 melanoma = test system: SK-MEL-28 melanoma
NCI-H23 lung = test system: NCI-H23 lung

`O=C1NC(Cc2ccccc2)C(=O)N2CCCC12` (stereo not given) showed a TGI (OVCAR-8 ovarian) of over 100 µM, a TGI (A498 renal) of over 100 µM and a TGI (SK-MEL-2 melanoma) of over 100 µM. It also gave a TGI (SR leukemia) of over 100 µM, a TGI (NCI-H460 lung) of over 100 µM and a TGI (SN12C renal) of over 100 µM. It also gave a TGI (HT29 colon) of over 100 µM and a TGI (SK-MEL-28 melanoma) of over 100 µM.

Work on `COc1cc(CC2C(=O)OCC2[C@@H](OC(C)=O)c2ccc3c(c2)OCO3)c(Br)c(OC)c1OC` (stereo not given in full) yielded a TGI (NCI-H23 lung) of over 100 µM, a TGI (OVCAR-8 ovarian) of over 100 µM and a TGI (SK-MEL-2 melanoma) of over 100 µM. For the same molecule, the TGI (SR leukemia) was over 100 µM, the TGI (NCI-H460 lung) was over 100 µM and the TGI (SN12C renal) was over 100 µM. For the same molecule, the TGI (HT29 colon) was over 100 µM and the TGI (SK-MEL-28 melanoma) was over 100 µM.

`O=C1C(=Cc2ccc([N+](=O)[O-])o2)C(=O)N(CCc2ccccc2)S(=O)(=O)N1CCc1ccccc1` gave a TGI (NCI-H23 lung) of 31.9 µM, a TGI (OVCAR-8 ovarian) of 79.2 µM and a TGI (SK-MEL-2 melanoma) of 35.2 µM. For the same molecule, the TGI (SR leukemia) was 38.4 µM, the TGI (NCI-H460 lung) was over 100 µM and the TGI (SN12C renal) was over 100 µM. It also gave a TGI (HT29 colon) of over 100 µM and a TGI (SK-MEL-28 melanoma) of 28 µM.

Work on `Cc1cc(=O)[nH]c(NNC(C#N)c2ccc(N(C)C)cc2)n1` (stereo not given) yielded a TGI (NCI-H23 lung) of over 100 µM, a TGI (OVCAR-8 ovarian) of over 100 µM and a TGI (SK-MEL-2 melanoma) of over 100 µM. For the same molecule, the TGI (SR leukemia) was over 100 µM, the TGI (NCI-H460 lung) was over 100 µM and the TGI (SN12C renal) was over 100 µM. The TGI (HT29 colon) was over 100 µM and the TGI (SK-MEL-28 melanoma) was over 100 µM.

`NNC(=S)NN/C=C(\C=Nc1ccccc1)[N+](=O)[O-]` showed a TGI (NCI-H23 lung) of over 100 µM, a TGI (OVCAR-8 ovarian) of over 100 µM and a TGI (SK-MEL-2 melanoma) of over 100 µM. It also gave a TGI (SN12C renal) of over 100 µM, a TGI (HT29 colon) of over 100 µM and a TGI (SK-MEL-28 melanoma) of over 100 µM.

In the case of `Cc1cc2c(cc1-c1cc3c(cc1C)C(C(C)C)=C(O)C(=O)/C3=C\Nc1ccccn1)/C(=C/Nc1ccccn1)C(=O)C(O)=C2C(C)C`, the TGI (NCI-H23 lung) was over 100 µM, the TGI (OVCAR-8 ovarian) was over 100 µM and the TGI (A498 renal) was over 100 µM. For the same molecule, the TGI (SK-MEL-2 melanoma) was 86.5 µM, the TGI (SR leukemia) was over 100 µM and the TGI (NCI-H460 lung) was over 100 µM. The TGI (SN12C renal) was over 100 µM and the TGI (SK-MEL-28 melanoma) was over 100 µM.

For `COCC1N=C(c2cc(OC)c(OC)c(OC)c2-c2cc3c(cc2[C@@H](C)O)OCO3)O[C@H]1c1ccccc1` (stereo not given in full), the TGI (NCI-H23 lung) was over 100 µM, the TGI (OVCAR-8 ovarian) was over 100 µM and the TGI (A498 renal) was over 100 µM. It also gave a TGI (SK-MEL-2 melanoma) of over 87.7 µM, a TGI (NCI-H460 lung) of over 100 µM and a TGI (SN12C renal) of over 100 µM. For the same molecule, the TGI (HT29 colon) was over 100 µM and the TGI (SK-MEL-28 melanoma) was over 100 µM.

`O=C1[C@H](O)[C@@H]2CCC[C@@]23CCCN13` gave a TGI (NCI-H23 lung) of over 100 µM, a TGI (OVCAR-8 ovarian) of over 100 µM and a TGI (A498 renal) of over 100 µM. For the same molecule, the TGI (SR leukemia) was over 100 µM, the TGI (NCI-H460 lung) was over 100 µM and the TGI (SN12C renal) was over 100 µM. It also gave a TGI (HT29 colon) of over 100 µM.

Work on `COc1ccc(OC)c(-c2cc(=O)c3cc4c(cc3[nH]2)OCO4)c1` yielded a TGI (NCI-H23 lung) of 15.4 µM, a TGI (OVCAR-8 ovarian) of over 68.5 µM and a TGI (SK-MEL-2 melanoma) of over 51.3 µM. The TGI (SR leukemia) was over 27.9 µM, the TGI (NCI-H460 lung) was over 37.2 µM and the TGI (SN12C renal) was over 87.5 µM. It also gave a TGI (HT29 colon) of over 100 µM and a TGI (SK-MEL-28 melanoma) of over 100 µM.

`O=C1C(Cl)C(c2ccc([N+](=O)[O-])cc2)N1n1cnc2ccccc2c1=O` (stereo not given) was tested, and the TGI (NCI-H23 lung) was over 100 µM, the TGI (OVCAR-8 ovarian) was over 100 µM and the TGI (SK-MEL-2 melanoma) was over 100 µM. For the same molecule, the TGI (NCI-H460 lung) was over 100 µM, the TGI (SN12C renal) was over 100 µM and the TGI (HT29 colon) was over 100 µM. The TGI (SK-MEL-28 melanoma) was over 100 µM.

Work on `CC(C)(CO)NC(=O)c1cccs1` yielded a TGI (NCI-H23 lung) of over 100 µM, a TGI (OVCAR-8 ovarian) of over 100 µM and a TGI (SK-MEL-2 melanoma) of over 100 µM. It also gave a TGI (SR leukemia) of over 100 µM, a TGI (NCI-H460 lung) of over 100 µM and a TGI (SN12C renal) of over 100 µM. For the same molecule, the TGI (HT29 colon) was over 100 µM and the TGI (SK-MEL-28 melanoma) was over 100 µM.

Molecule `Cc1nc(-n2nc(-c3ccccc3)cc2-c2ccccc2)sc1C(/C=C/c1ccc([N+](=O)[O-])cc1)=N/NC(N)=S` has a TGI (NCI-H23 lung) of over 100 µM, a TGI (OVCAR-8 ovarian) of over 100 µM and a TGI (A498 renal) of over 100 µM. It also gave a TGI (SK-MEL-2 melanoma) of over 100 µM, a TGI (NCI-H460 lung) of over 100 µM and a TGI (SN12C renal) of over 100 µM. The TGI (HT29 colon) was over 100 µM and the TGI (SK-MEL-28 melanoma) was over 100 µM.

`O=C(CC(=O)N1N=C(c2ccccc2)C(N=Nc2ccccc2Cl)C1=O)Nc1ccccc1Cl` (stereo not given) gave a TGI (NCI-H23 lung) of over 100 µM, a TGI (OVCAR-8 ovarian) of over 100 µM and a TGI (SK-MEL-2 melanoma) of over 100 µM. It also gave a TGI (SR leukemia) of 54.5 µM, a TGI (NCI-H460 lung) of over 100 µM and a TGI (SN12C renal) of over 100 µM. It also gave a TGI (HT29 colon) of 44.6 µM and a TGI (SK-MEL-28 melanoma) of over 100 µM.

Work on `CN(C)CCNC(=O)c1cccc2[nH]c(-c3ccc(Cl)cc3)nc12` yielded a TGI (NCI-H23 lung) of 21.5 µM, a TGI (OVCAR-8 ovarian) of 20.8 µM and a TGI (A498 renal) of 24 µM. The TGI (SK-MEL-2 melanoma) was 26.5 µM, the TGI (NCI-H460 lung) was 13.2 µM and the TGI (SN12C renal) was 19.4 µM. For the same molecule, the TGI (HT29 colon) was 16.6 µM and the TGI (SK-MEL-28 melanoma) was 31.9 µM.

Molecule `Cc1cc(C)c(C(=O)/C(=C/c2ccccc2)c2ccccc2)c(C)c1` has a TGI (NCI-H23 lung) of over 100 µM, a TGI (OVCAR-8 ovarian) of over 100 µM and a TGI (SK-MEL-2 melanoma) of 43.4 µM. For the same molecule, the TGI (SR leukemia) was over 100 µM, the TGI (NCI-H460 lung) was over 100 µM and the TGI (SN12C renal) was over 100 µM. For the same molecule, the TGI (HT29 colon) was over 100 µM and the TGI (SK-MEL-28 melanoma) was over 100 µM.

`CCSc1[nH]c(NC(=NC(C)C)NC(=O)c2ccccc2)c(C(N)=O)c1C(N)=O` showed a TGI (NCI-H23 lung) of over 10 µM, a TGI (OVCAR-8 ovarian) of over 10 µM and a TGI (SR leukemia) of over 10 µM. The TGI (SN12C renal) was over 10 µM, the TGI (HT29 colon) was over 10 µM and the TGI (SK-MEL-28 melanoma) was over 10 µM.

In the case of `CC(C)OC(=O)c1cccnc1/C=N/O`, the TGI (NCI-H23 lung) was over 100 µM, the TGI (OVCAR-8 ovarian) was over 100 µM and the TGI (A498 renal) was over 100 µM. It also gave a TGI (SK-MEL-2 melanoma) of over 100 µM, a TGI (NCI-H460 lung) of over 100 µM and a TGI (SN12C renal) of over 100 µM. The TGI (HT29 colon) was over 100 µM.

`Brc1ccc(C[N+]23CN4CN(CN(C4)C2)C3)cc1` showed a TGI (NCI-H23 lung) of over 100 µM, a TGI (OVCAR-8 ovarian) of 99.7 µM and a TGI (NCI-H460 lung) of over 100 µM. The TGI (SN12C renal) was 62.4 µM and the TGI (SK-MEL-28 melanoma) was over 100 µM.

`COc1ccc(N2C(=O)C3C=CC(n4[nH]c(=O)n(Cc5ccccc5)c4=O)CC3C2=O)cc1` (stereo not given) was tested, and the TGI (NCI-H23 lung) was over 100 µM, the TGI (OVCAR-8 ovarian) was over 100 µM and the TGI (A498 renal) was over 100 µM. The TGI (SK-MEL-2 melanoma) was over 100 µM, the TGI (NCI-H460 lung) was over 100 µM and the TGI (SN12C renal) was over 100 µM. The TGI (HT29 colon) was over 100 µM and the TGI (SK-MEL-28 melanoma) was over 100 µM.

`O=C(CSc1nnc(-c2ccc(N=Cc3ccc(Cl)cc3)cc2)o1)Nc1cccc([N+](=O)[O-])c1` gave a TGI (NCI-H23 lung) of over 100 µM, a TGI (OVCAR-8 ovarian) of over 100 µM and a TGI (SK-MEL-2 melanoma) of over 100 µM. It also gave a TGI (SR leukemia) of over 100 µM, a TGI (NCI-H460 lung) of over 100 µM and a TGI (SN12C renal) of over 100 µM. The TGI (HT29 colon) was over 100 µM and the TGI (SK-MEL-28 melanoma) was over 100 µM.
